Data: patent US8461364B2, “Polymorphs of (S)-3-aminomethyl-7-(3-hydroxy-propoxy)-3H-benzo[C][1,2]oxaborol-1-OL” (GlaxoSmithKline LLC, priority 2008, dated 2013)

Tests used:
Assay type in all cases: physicochemical
[1] = Thermogravimetric analysis (TGA); details: ramp 15° C./minute
Description: The sample pan was tared, and sample of (S)-3-aminomethyl-7-(3-hydroxy-propoxy)-3H-benzo[c][1,2]oxaborol-1-ol polymorph form HCl4 prepared in Example 2, Method-B, was placed in the pan. The temperature was ramped at a rate of 15° C./minute.
The TGA thermogram of polymorph form HCl3 was acquired using a TA Instruments Q500 Thermogravimetric Analyzer. The sample pan was tared, and sample of (S)-3-aminomethyl-7-(3-hydroxy-propoxy)-3H-benzo[c][1,2]oxaborol-1-ol polymorph form HCl3 prepared as described above was placed in the pan. The temperature was ramped at a rate of 15° C./minute. A weight-loss of 4.7% between 27 and 104° C. was observed and is associated with water-loss due to dehydration.

[2] = Differential scanning calorimetry (DSC); details: ramp 15° C./minute, loose lid aluminum pan
Description: Instrument: TA Instruments Thermal Analysis System, Model DSC Q100
Key Operating Parameters:
Module—DSC Standard Cell FC
Method 1: Equilibrate at 25.00° C.
The DSC thermogram was acquired using a TA Instruments Q100 Differential Scanning calorimeter, as indicated above. A sample of (S)-3-aminomethyl-7-(3-hydroxy-propoxy)-3H-benzo[c][1,2]oxaborol-1-ol polymorph form HCl4 prepared in Example 2, Method B, was accurately weighed out directly into an aluminum DSC pan. The pan was sealed by applying pressure by hand and pushing each part of the pan together (also known as a loose lid configuration). The temperature was ramped at a rate of 15° C./minute. An endothermic transition having an onset of 178.1° C. was measured, and is associated with a decomposition event.

[3] = Form screen with competitive ripening experiments (Raman/XPRD grouping); details: for relative polymorph stability (additional studies incl. single crystal form screen): 48 solvents/solvent mixtures, four crystallization modes, room temperature
Description: Alternative methods for preparing polymorph form HCl1, form HCl2, form HCl4, and form HCl5 involve the use of a form screen procedure. The input material for the screen was a nonsolvated form of the hydrochloride salt of (S)-3-aminomethyl-7-(3-hydroxy-propoxy)-3H-benzo[c][1,2]oxaborol-1-ol. […] Screening was conducted in a total of 48 solvents/solvent mixtures using four different crystallization modes listed below. The solvents included water, methanol, 1-propanol, nitromethane, acetonitrile, dimethylsulfoxide, acetone, 2-butanone, dichloromethane, methyl acetate, […], ethyl acetate, chlorobenzene, tetrahydrofuran, 1,4-dioxane, isopropyl ether, toluene, cyclohexane, heptanes, 1-butanol, 2-propanol, trifluoroethanol, dimethyl carbonate, t-butyl methyl ether, isopropyl acetate, ethanol, 1-methoxy-2-propanol, cyclohexanone, dimethyl formamide, 2-methoxyethyl ether, methanol:5 vol % H2O, acetonitrile:5 vol % H2O, acetone:5 vol % H2O, tetrahydrofuran:5 vol % H2O, 2-propanol:5 vol % H2O, methanol:10 vol % H2O, acetonitrile:10 vol % H2O, acetone:10 vol % H2O, tetrahydrofuran:10 vol % H2O, dioxane:10 vol % H2O, 2-propanol:10 vol % H2O, isopropanol+10% dimethylsulfoxide, acetonitrile+10% dimethylsulfoxide, and n-methylpyrrolidone.
Vapor diffusions were also conducted in selected solvents. The four crystallization modes used were: • temperature-cycled ripening of slurries • rapid cooling of room-temperature solutions • room-temperature evaporation of solutions • vapor diffusion of solvent/anti-solvent combinations Characterization:
All samples from the screen were isolated and analyzed by Raman spectroscopy. The samples were then grouped based on Raman spectral match. Representative samples from each of the groups were further analyzed by additional analytical techniques as appropriate (XPRD, DSC, TG-IR, PLM, etc.).
The temperature-cycle, rapid cool, and vapor diffusion samples formed a single group (Group A/Input) based on Raman and XPRD analyses. Most evaporative samples also produced Group A. However, five additional groups (Group B, Group C, Group D, Group E, and Group F) were produced from evaporative and evaporative scale-up experiments based on Raman analyses. These groups were selected for further analysis and/or scale-up.
Group B was an evaporative experiment from nitromethane produced in very low yields (<3 mg). This sample was analyzed by Raman, XPRD, and DSC. Insufficient sample was present for TG-IR (thermogravimetric-infrared spectroscopy). Six scale-up experiments were set up and each produced an amorphous or oily solid. […]
Group C was produced from two evaporative experiments from acetone and 2-butanone in very low yields (<1 mg). This sample was analyzed by Raman, and insufficient sample was present for further analysis. […]

[4] = Stability study: storage of the polymorph under ambient conditions, XRPD afterwards
Excerpt: The HCl1 polymorph, which was a hard bulky material, was placed in a closed Amber bottle and stored under ambient conditions. Four months later, the bottle was opened, and the hard bulky material was now a free flowing powder. An XRPD was taken of this free flowing powder.

[5] = Storage of Form HCl5 (sealed vial / room temperature)
Description: A solution of isopropanol containing 20% water by volume was added to a vial containing approximately 25 mg of polymorph form HCl4. The resulting mixture was stirred as the temperature was cycled between 0 and 40° C. over the course of 48 hours. The solution was isolated by filtration and evaporated to dryness. The freshly isolated product was verified to be Form HCl5.

Cl.NC[C@H]1OB(O)c2c(OCCCO)cccc21 [polymorph form HCl3, (S)-3-aminomethyl-7-(3-hydroxy-propoxy)-3H-benzo[c][1,2]oxaborol-1-ol.HCl]
weight-loss (water-loss due to dehydration) ([1]; between 27 and 104° C.): 4.7%

Cl.NC[C@H]1OB(O)c2c(OCCCO)cccc21 [polymorph form HCl4, (S)-3-aminomethyl-7-(3-hydroxy-propoxy)-3H-benzo[c][1,2]oxaborol-1-ol.HCl]
onset of endothermic transition associated with a decomposition event [2]: 178.1 °C | stepwise weight-loss (water-loss due to reversible chemical transformation) ([1]; between 162 and 214° C.): 6.4% | temperature beyond which further decomposition is observed [1]: > 214 °C | relative polymorph stability (additional studies incl. single crystal form screen) [3]: most stable polymorph | relative polymorph stability (additional studies incl. single crystal form screen) ([3]; listed as input material): most stable form at room temperature | stability compared to other polymorphs of the HCl salt ([3]; physical and/or chemical stability, general statement): increased stability | relative polymorph stability ([4]; from conversion during four months storage at ambient conditions): more stable polymorph than HCl1

Cl.NC[C@H]1OB(O)c2c(OCCCO)cccc21 [polymorph form HCl1, (S)-3-aminomethyl-7-(3-hydroxy-propoxy)-3H-benzo[c][1,2]oxaborol-1-ol.HCl]
solid form after storage (XRPD) ([4]; closed Amber bottle, ambient conditions, four months): converted into the HCl4 form during storage

Cl.NC[C@H]1OB(O)c2c(OCCCO)cccc21 [polymorph form HCl5, (S)-3-aminomethyl-7-(3-hydroxy-propoxy)-3H-benzo[c][1,2]oxaborol-1-ol.HCl]
stability of isolated form (Raman) ([3]; sample from very slow evaporation from acetone with 20% water): unstable and converted to Group E | form after storage ([5]; sealed vial, at least 7 days): conversion to Form HCl3 | stability on storage ([5]; stored at room temperature): unstable when stored at room temperature and converts to Form HCl3
